Test results as given in publication PMC7060200, “Selective Binding of HSC70 and its Co-Chaperones to Structural Hotspots on CFTR” (Scientific Reports, 2020).
Ends that are not written are not given here. Peptide text beside a SMILES is read from it.

How the values were obtained:
[1] = molecular target: T1, HSC70 (Homo sapiens, UniProt P11142); assay: ELISA binding of HSC70 to immobilized CFTR NBD1 and competition by soluble peptides; details: 1 μM HSC70, with ATP, soluble peptide, Fig. 4a; n = 5
T1 construct: made in house
T1 sequence (P11142 whole entry): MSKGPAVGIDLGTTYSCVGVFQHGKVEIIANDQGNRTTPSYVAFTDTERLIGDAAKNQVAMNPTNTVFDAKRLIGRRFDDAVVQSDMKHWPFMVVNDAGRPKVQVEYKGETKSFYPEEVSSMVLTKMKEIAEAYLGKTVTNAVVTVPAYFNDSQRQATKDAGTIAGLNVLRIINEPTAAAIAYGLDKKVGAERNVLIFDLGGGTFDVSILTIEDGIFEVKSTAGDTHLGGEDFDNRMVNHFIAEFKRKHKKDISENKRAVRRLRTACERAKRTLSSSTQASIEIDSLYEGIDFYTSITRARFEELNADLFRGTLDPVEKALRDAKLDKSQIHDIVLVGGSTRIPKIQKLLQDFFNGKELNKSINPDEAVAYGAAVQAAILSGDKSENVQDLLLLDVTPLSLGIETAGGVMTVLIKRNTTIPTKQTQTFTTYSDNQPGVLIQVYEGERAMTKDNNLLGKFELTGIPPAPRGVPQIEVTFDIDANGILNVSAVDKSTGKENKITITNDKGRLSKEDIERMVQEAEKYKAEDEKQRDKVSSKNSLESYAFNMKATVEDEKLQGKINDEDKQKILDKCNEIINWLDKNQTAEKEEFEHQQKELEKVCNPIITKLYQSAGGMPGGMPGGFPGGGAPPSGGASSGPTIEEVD
Procedure: (§1) HSC70, DJA1 and DJA2 were purified as His-tagged proteins, as described. HSC70 was also amplified by PCR with an N-terminal FLAG tag, inserted into pPROEXHTa (Invitrogen) and purified as described. HSC70 was stored in 100 mM KOAc, 20 mM HEPES-KOH pH 7.5, 5 mM MgOAC2 (buffer G), DJA1 and DJA2 in 500 mM NaCl, 20 mM HEPES-KOH pH 7.5, 5 mM MgOAC2 (buffer H). Avi-tagged CFTR NBD1 was purified as described.
For NBD1 binding, 100 nM of strep-tagged NBD1 in 100 µl of 150 mM NaCl, 50 mM Na2HPO4 pH 7.5, 1 mM ATP, and 40 µM DTT (buffer N), was bound to streptavidin plates for 1 hour at 4 °C with agitation. Plates were washed with PBST and incubated in buffer N at 30 °C in a water bath for 5 min. Then, plates were blocked in PBST containing 0.5% BSA, followed by the addition of HSC70 binding reactions, and detection as above.

[2] = system: HSC70 and DJA2; assay: Refolding of guanidine denatured luciferase by HSC70 and DJA2; assay type: biochemical; details: 4 μM each HSC70 and DJA2, 100 nM luciferase, 100 μM peptide (25-fold excess), 60 min, % of control without peptide; n = 3
Procedure: Refolding of guanidine denatured luciferase with HSC70 and DJA2 was as described. […] To monitor refolding, luciferase activity was measured in a luminometer (Berthold Sirius) with the luciferase assay kit (Promega). For co-IPs, 20 μL reaction aliquots were stopped by dilution at 4 °C to 500 μL with buffer containing 0.1% Triton X-100, 0.2% BSA and 0.04 mg/mL apyrase (Sigma). Reactions were incubated with FLAG-M2 magnetic beads (Sigma) for 1 h at 4 °C with agitation, then beads were isolated and washed with buffer G containing 0.1% Triton X-100, and eluted with 40 μL of 1 μg/mL FLAG peptide in the same buffer. Samples were analyzed on Western blots detected with antibodies against luciferase (Sigma, L2164) and the FLAG-M2 tag (Sigma, F1804).

[3] = molecular target: T1, HSC70; assay: ELISA binding of HSC70 to immobilized biotinylated CFTR peptides
Procedure: as §1
(§2) The CFTR peptide library was designed as 15-mers with 10-residue overlaps covering the cytosolic sequences as in Fig. 1a and Supplemental Table S1. Synthetic peptides (Mimotopes, PepSet purity) contained an N-terminal biotin followed by linker sequence GSGS and the 15-mer sequence. […] Peptides were reconstituted in DMSO or water.
(§3) For peptide binding, streptavidin-coated black 96-well plates (Nunc Maxisorp, ThermoFisher) were pre-rinsed with PBS containing 0.05% Tween-20 (PBST), and 5 µM biotinylated peptides in 100 µl PBS were bound overnnight at 4 °C with agitation. Plates were washed with PBST and blocked with PBST containing 0.5% bovine serum albumin (BSA) for 1 h. After removal of blocking solution, 100 µl reactions containing chaperones at indicated concentrations were bound for 45 min at room temperature with agitation. HSC70 reactions were in buffer G containing 1 mM ATP, DJA1 and DJA2 reactions were in buffer H. For competition assays, chaperones and peptides were mixed at indicated concentrations immediately before the reactions were added to the plates. For detections, the plates were washed in PBST and 5 μM His-Probe-HRP conjugate (ThermoFisher) in 100 μL PBST added for 15 min with agitation. After washing in PBST, plates were developed using Amplex Red (ThermoFisher) according to manufacturer’s instructions, in a fluorescence plate reader (Tecan M1000).
(§4) Affinities were determined separately from binding curves and from competition curves. Data from binding of chaperones to immobilized peptides (Fig. 2a,b and Supplemental Fig. S2a–c) were fit to the equation 1/(1 − i) = (C/i)/Kd^B − b, where i is the relative saturation, C is the chaperone concentration (1 μM), Kd^B is the apparent dissociation constant from the binding data. In the plot of 1/(1 − i) against (C/i), the slope is 1/Kd^B, and −b is the intercept. […] In the plot of bi + (C/Kd^B)/i over D, the slope is 1/Kd^C, and e is the intercept. The amount of chaperone bound in the absence of competitor was set as i = 1.
(§5) Established statistical methods[71]–[73] were used to analyze the data for chaperone binding to the peptide library. First, biological and statistical outliers were identified with the Tukey method in two rounds, for biological and then statistical outliers. […] Binding data were represented as multiples of the standard deviations from the normal means. Binding in the presence of competitor peptides were shown as a fraction of binding in the absence of competitor, or the fraction competed calculated as 1 – fraction bound. Values were compared using a two-tailed unpaired Student’s t-test assuming unequal variance.

[4] = system: Flag-tagged HSC70; assay: Co-immunoprecipitation of luciferase with Flag-tagged HSC70 during refolding; assay type: biochemical; details: refolding reactions stopped at 0 or 15 min, FLAG IP, Western blot, Fig. 4d
Procedure: as §1
Refolding of guanidine denatured luciferase with HSC70 and DJA2 was as described. 100 µl reactions contained 4 μM each of HSC70 and DJA2, 2 mM ATP and […] in buffer G, with the indicated concentrations of peptides. To monitor refolding, luciferase activity was measured in a luminometer (Berthold Sirius) with the luciferase assay kit (Promega). For co-IPs, 20 μL reaction aliquots were stopped by dilution at 4 °C to 500 μL with buffer containing 0.1% Triton X-100, 0.2% BSA and 0.04 mg/mL apyrase (Sigma). Reactions were incubated with FLAG-M2 magnetic beads (Sigma) for 1 h at 4 °C with agitation, then beads were isolated and washed with buffer G containing 0.1% Triton X-100, and eluted with 40 μL of 1 μg/mL FLAG peptide in the same buffer. Samples were analyzed on Western blots detected with antibodies against luciferase (Sigma, L2164) and the FLAG-M2 tag (Sigma, F1804).

[5] = molecular target: T2, DJA1 (Homo sapiens, UniProt P31689); assay: ELISA binding of DJA1 to immobilized biotinylated CFTR peptides; details: 2 μM DJA1, absence of ATP, immobilized 15-mer; n ≥ 3
T2 construct: made in house
Procedure: as §1, §2, §3, §4, §5

[6] = molecular target: T3, DJA2 (Homo sapiens, UniProt O60884); assay: ELISA binding of DJA2 to immobilized biotinylated CFTR peptides; details: 2 μM DJA2, absence of ATP, immobilized 15-mer; n ≥ 3
T3 construct: made in house
T3 sequence (O60884 whole entry): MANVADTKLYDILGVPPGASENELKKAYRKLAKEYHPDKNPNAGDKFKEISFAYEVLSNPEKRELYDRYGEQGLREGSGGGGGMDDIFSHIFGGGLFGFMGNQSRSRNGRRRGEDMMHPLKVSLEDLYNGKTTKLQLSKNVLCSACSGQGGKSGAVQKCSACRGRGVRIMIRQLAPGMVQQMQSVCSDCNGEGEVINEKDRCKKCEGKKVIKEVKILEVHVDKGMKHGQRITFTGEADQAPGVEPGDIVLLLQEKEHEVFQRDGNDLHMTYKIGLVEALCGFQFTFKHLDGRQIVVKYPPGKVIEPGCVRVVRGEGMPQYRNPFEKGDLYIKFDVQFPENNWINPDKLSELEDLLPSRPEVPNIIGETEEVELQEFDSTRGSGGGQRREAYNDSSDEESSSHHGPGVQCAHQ
Procedure: as §1, §2, §3, §4, §5

[7] = molecular target: T1, HSC70; assay: Competition ELISA: soluble peptide vs HSC70 binding to immobilized 1097-L; details: for HSC70 binding site by competition screen (in words): 1 μM HSC70, 100 μM soluble peptide, Fig. 3c/5, cutoff twice SD of 733-L, n ≥ 4; for competition of HSC70 binding to immobilized 1097-L (in words): 1 μM HSC70, soluble peptide up to 100 μM; for Kd: read-out: Kd from competition curves, HSC70
Procedure: as §1, §2, §3, §4, §5

[8] = molecular target: T2, DJA1; assay: Competition ELISA: soluble peptide vs DJA1 binding to immobilized 1097-L; details: for DJA1 binding site by competition screen (in words): 1 μM DJA1, 100 μM soluble peptide, Fig. 3c/5, cutoff twice SD of 733-L, n ≥ 4; for competition of DJA1 binding to immobilized 1097-L (in words): 1 μM DJA1, soluble peptide up to 100 μM
Procedure: as §1, §2, §3, §4, §5

[9] = molecular target: T3, DJA2; assay: Competition ELISA: soluble peptide vs DJA2 binding to immobilized 1097-L; details: for DJA2 binding site by competition screen (in words): 1 μM DJA2, 100 μM soluble peptide, Fig. 3c/5, cutoff twice SD of 733-L, n ≥ 4; for competition of DJA2 binding to immobilized 1097-L (in words): 1 μM DJA2, soluble peptide up to 100 μM
Procedure: as §1, §2, §3, §4, §5

[10] = molecular target: T3, DJA2; assay: Fluorescent peptide binding, DJA2; details: 0.5 μM FAM-1092-S, buffer H, 45 min, ex 492 nm / em 520 nm, one site total binding fit, n ≥ 8
Text: (§6) The CFTR peptide library was designed as 15-mers with 10-residue overlaps covering the cytosolic sequences as in Fig. 1a and Supplemental Table S1. Synthetic peptides (Mimotopes, PepSet purity) contained an N-terminal biotin followed by linker sequence GSGS and the 15-mer sequence. Soluble peptides (Lifetein) were synthesized unmodified at >85% purity, sequences in Supplemental Table S1 and S2. Fluorescent peptide 1092-S was fused to the linker sequence SG and an N-terminal 6-carboxyfluorescein (FAM) label. Peptides were reconstituted in DMSO or water.
(§7) 0.5 μM FAM-1092-S was incubated with chaperones at the indicated concentrations for 45 min. HSC70 was incubated in buffer G, DJA1 and DJA2 were incubated in buffer H. The fluorescence signal for each condition was measured at 492 nm wavelength excitation, 520 nm wavelength emission, and 5 nm slit width, using a Horiba FluoroMax spectrofluorometer. Data were collected with the FluorEssence software (Horiba). Dissociation constants (Kd) were determined by nonlinear regression fit of the averaged data to a one site – total binding model, using GraphPad Prism 8. The 95% confidence intervals and R^2 correlation coefficients are reported (Supplemental Table S3).

[11] = molecular target: T1, HSC70; assay: Fluorescent peptide binding, HSC70; details: 0.5 μM FAM-1092-S, buffer G, 45 min, ex 492 nm / em 520 nm, one site total binding fit, n ≥ 8
Text: as §6, §7

[12] = molecular target: T2, DJA1; assay: Fluorescent peptide binding, DJA1; details: 0.5 μM FAM-1092-S, buffer H, 45 min, ex 492 nm / em 520 nm, one site total binding fit, n ≥ 8
Text: as §6, §7

Row | Molecule | competition of HSC70 binding to immobilized NBD1 (in words) [1] | effect on luciferase refolding (in words) [2] | HSC70 binding site by competition screen (in words) [7] | competition of HSC70 binding to immobilized 1097-L (in words) [7] | DJA1 binding site by competition screen (in words) [8] | competition of DJA1 binding to immobilized 1097-L (in words) [8] | DJA2 binding site by competition screen (in words) [9] | competition of DJA2 binding to immobilized 1097-L (in words) [9] | Kd [7] [µM] | other results
1 | 733-L: R 15-mer 726-740, negative control (EDSDEPLERRLSLVP; UniProt P13569 726-740, looked up, fragment) [Peptide 733-L] | did not | no effect |  |  |  |  |  |  |  | binding in peptide library screen, HSC70 (in words) ([3]; 2 μM HSC70, with ATP, immobilized 15-mer, n ≥ 3): low binding; titration binding / saturation, HSC70 (in words) ([3]; HSC70 titrated to 1.5 μM on immobilized peptide, Fig. 2a, S2a, n ≥ 6): low; luciferase bound to HSC70 in presence of peptide (in words) [4]: luciferase was substantially bound; binding in peptide library screen, DJA1 (in words) [5]: low binding; binding in peptide library screen, DJA2 (in words) [6]: low binding
2 | CC[C@H](C)[C@H](NC(=O)[C@@H](NC(=O)[C@@H](NC(=O)[C@H](CS)NC(=O)[C@@H](N)CC(=O)O)[C@@H](C)O)C(C)C)C(=O)N[C@@H](CC(C)C)C(=O)N[C@@H](CS)C(=O)N[C@@H](CCC(=O)O)C(=O)N[C@@H](Cc1c[nH]cn1)C(=O)O [Peptide 1398-S] (H-DCTVILCEH-OH; N-terminus and C-terminus assumed) | effective competitors | inhibited refolding | bound by HSC70, DJA2 and DJA1 | competed | bound by HSC70, DJA2 and DJA1 | competed | bound by HSC70, DJA2 and DJA1 | competed |  | 
3 | DKILILHEG [Peptide 618-S] | competed the majority of HSC70 | partial but still significant | bound by HSC70, DJA2 and DJA1 | competed HSC70 well | bound by HSC70, DJA2 and DJA1 |  | bound by HSC70, DJA2 and DJA1 |  |  | 
4 | NWFLYLSTL [Peptide 1092-S] | effective competitors | inhibited refolding |  | competed all three chaperones | one of the few sites also bound by DJA1 | competed all three chaperones |  | competed all three chaperones | 1.26 | Kd from fluorescence binding, DJA2 [10]: single micromolar range; Kd ([10]; read-out: Kd from fluorescence binding, DJA2): 8.46 µM; Kd from fluorescence binding, HSC70 [11]: single micromolar range; Kd ([11]; read-out: Kd from fluorescence binding, HSC70): 6.17 µM; Kd ([8]; read-out: Kd from competition curves, DJA1): 5.47 µM; Kd [9]: 2.63 µM; Kd from fluorescence binding, DJA1 [12]: single micromolar range; Kd ([12]; read-out: Kd from fluorescence binding, DJA1): 3.97 µM
5 | QKVFIFSGTF [Peptide 1295-S] | effective competitors | partial but still significant | HSC70-DJA2 sites | competed |  |  | HSC70-DJA2 sites |  | 1.26 | 
6 | TSLLMVIMG [Peptide 469-S] | competed the majority of HSC70 | inhibited refolding | HSC70-DJA2 sites | competed HSC70 well |  |  | HSC70-DJA2 sites | competed |  | 
